PubChem BioAssay (NCI)
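Cultured in 96-well plates, cells were exposed to test compound for 48 hours across five concentrations. Abbreviation: GI50, concentration required for 50% inhibition of growth. Definition used: TGI = concentration required for complete inhibition of growth.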

Key:
Assay in all cases: growth of human tumour cells (NCI), 48 h
SF-539 CNS = tested on: SF-539 CNS
A549 NSCLC = tested on: A549 NSCLC
CCRF-CEM leukemia = tested on: CCRF-CEM leukemia
TK-10 renal = tested on: TK-10 renal
UACC-62 melanoma = tested on: UACC-62 melanoma
HOP-92 NSCLC = tested on: HOP-92 NSCLC
SK-OV-3 ovarian = tested on: SK-OV-3 ovarian
SF-295 CNS = tested on: SF-295 CNS
HCC-2998 colon = tested on: HCC-2998 colon
UO-31 renal = tested on: UO-31 renal

Row | SMILES | GI50 (SF-539 CNS) [µM] | TGI (SF-539 CNS) [µM] | GI50 (A549 NSCLC) [µM] | TGI (A549 NSCLC) [µM] | GI50 (CCRF-CEM leukemia) [µM] | TGI (CCRF-CEM leukemia) [µM] | GI50 (TK-10 renal) [µM] | TGI (TK-10 renal) [µM] | GI50 (UACC-62 melanoma) [µM] | TGI (UACC-62 melanoma) [µM] | GI50 (HOP-92 NSCLC) [µM] | TGI (HOP-92 NSCLC) [µM] | GI50 (SK-OV-3 ovarian) [µM] | TGI (SK-OV-3 ovarian) [µM] | GI50 (SF-295 CNS) [µM] | TGI (SF-295 CNS) [µM] | TGI (HCC-2998 colon) [µM] | TGI (UO-31 renal) [µM] | GI50 (HCC-2998 colon) [µM] | GI50 (UO-31 renal) [µM]
1 | Clc1ccc(C2=Nn3c(nnc3-c3cc(Cl)cc(Cl)c3Cl)SC2)cc1 | 20.1 | 48.3 | 56.5 | > 100 | 10.7 | 26 | 15.9 | 35.9 | 21.6 | 70.9 | 19.6 | 65 | 17.6 | 44.5 | 11 | 29.3 | – | – | – | –
2 | CC1(C)OB(O)OC1(C)C | – | > 100 | – | > 100 | – | > 100 | – | > 100 | – | > 100 | – | – | – | > 100 | – | > 100 | > 100 | > 100 | – | –
3 | Cc1ccc(C2NC(=O)c3ccccc3N2)s1 (stereo not given) | – | 14.4 | – | > 100 | – | > 100 | – | > 100 | – | > 100 | – | – | – | 91.6 | – | 6.87 | 39.7 | > 100 | – | –
4 | NC(=O)c1coc(C2OC(CO)C(O)C2O)n1 (stereo not given) | – | > 100 | – | > 100 | – | > 100 | – | > 100 | – | > 100 | – | > 100 | – | > 100 | – | – | > 100 | > 100 | – | –
5 | Nc1nc2cc3ccc(C4CC(O)C(CO)O4)cc3cc2c(=O)[nH]1 (stereo not given) | > 100 | > 100 | > 100 | > 100 | 41.4 | > 100 | – | – | > 100 | > 100 | > 100 | > 100 | > 100 | > 100 | > 100 | > 100 | > 100 | > 100 | > 100 | 94.6
6 | O=C(O)c1cc2ccccc2c(N=Nc2cc(C(F)(F)F)ccc2Cl)c1O | – | > 100 | – | > 100 | – | > 100 | – | > 100 | – | – | – | > 100 | – | > 100 | – | > 100 | > 100 | > 100 | – | –
7 | COc1ccc(C[C@@H]2NC[C@@H](O)[C@@H]2OC(C)=O)cc1 | 9.48 | > 100 | 5.54 | – | 4.35 | – | – | 0.254 | 3.19 | – | – | 0.0448 | – | – | 6.7 | 90 | – | – | 2.19 | 44.6
8 | Cc1cc(Nc2c3ccccc3nc3ccccc23)ccc1NS(C)(=O)=O | 3.74 | 14.9 | 2.85 | 12 | 3.25 | 20.3 | 3.23 | 11.7 | – | – | 0.758 | 5.69 | 6.28 | 20.1 | 4.26 | 23.4 | 20.7 | 8.76 | 5.94 | 1.9
9 | COc1cc2c3c(n(CCCNCCCNCCCNCCCN)c(=O)c2cc1OC)-c1cc2c(cc1C3=O)OCO2 | – | – | 2.2 | 11.7 | 0.301 | 2.16 | 2.8 | 5.8 | 1.68 | 6.19 | 2.74 | 9.64 | 8.52 | > 100 | 1.38 | 3.97 | – | > 100 | – | 7.39
